Assay results published in patent publication US20170042962A1, “AGENT FOR PREVENTING OR AM[…] ENDOTHELIAL MALFUNCTION” (KYOWA HAKKO BIO CO., LTD., priority 2012, published 2017).

Tested on: HUVEC
Assay: NO production (nitrite, NO2, in culture supernatant by HPLC) after adding samples to HUVEC
Assay type: cell-based, human
Conditions: citrulline final concentration 0.3 mM, 24-hour culture, vs control (PBS)
Protocol: The cells were cultured in at 37° C., in 5% CO2 incubator, and used for experiment after 4 to 6 passages. Citrulline and reduced glutathione were obtained from Kyowa Hakko Bio.
A cell suspension (0.45 mL) with the adjusted initial cell concentration of 5×10^5 cells/mL was inoculated in a 24-well plate (IWAKI).
Media with the sole addition of solvent (PBS) were used as a control group. After 24-hour culture, the cell culture (100 μL) was centrifuged at 12,000 rpm for 10 minutes, and the concentration of nitrite (NO2), which is the stable NO metabolite, in culture supernatant was quantified by HPLC (ENO-20, EICOM).

`NC(=O)NCCC[C@H](N)C(=O)O` [citrulline, L-citrulline] was tested, and the “effect on NO production (nitrite concentration in culture supernatant)” value was “no effect”.
